Our source for the IC50 values is ChEMBL document CHEMBL3886260, “Amide or urea containing benzothiazole inhibitors of endothelial lipase” (2015).

Bounds are passed on as bounds.

The experiment deals with T1, Endothelial lipase (Homo sapiens, UniProt Q9Y5X9).
T1 sequence (Q9Y5X9 whole entry): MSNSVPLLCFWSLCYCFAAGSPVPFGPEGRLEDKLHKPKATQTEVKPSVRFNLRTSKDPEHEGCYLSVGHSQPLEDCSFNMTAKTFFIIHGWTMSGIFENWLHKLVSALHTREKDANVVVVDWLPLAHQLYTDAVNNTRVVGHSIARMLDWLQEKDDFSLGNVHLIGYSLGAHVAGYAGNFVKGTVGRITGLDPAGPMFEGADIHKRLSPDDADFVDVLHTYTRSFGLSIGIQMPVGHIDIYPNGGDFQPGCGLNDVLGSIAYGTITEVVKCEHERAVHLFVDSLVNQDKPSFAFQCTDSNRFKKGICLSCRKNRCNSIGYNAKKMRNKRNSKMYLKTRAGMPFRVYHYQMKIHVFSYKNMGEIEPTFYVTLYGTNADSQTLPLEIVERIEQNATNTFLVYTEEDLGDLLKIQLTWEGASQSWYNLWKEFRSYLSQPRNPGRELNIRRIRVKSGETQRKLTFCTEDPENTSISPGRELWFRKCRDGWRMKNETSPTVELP
The experiment can be described thus: Biological Assay: Endothelial lipase activity was measured using a fluorescent substrate, A10070, (Invitrogen, CA) doped into an artificial vesicle containing DMPG (Avanti Polar Lipids) as the excipient. Vesicles were prepared by combining 285 uL, of 1 mM DMPG in a 1:1 mixture of MeOH and CHCl3 with 15 uL, of 1 mM A10070 in a 1:1 mixture of MeOH and CHCl3. The mixture was dried under nitrogen and resuspended in 150 uL, of 50 mM HEPES pH 8.0 buffer containing 100 mM NaCl and 0.2 mM EDTA. The sample was allowed to sit at rt for 15 min and then was sonicated 3x4 mins on ice with a Branson Sonicator using duty cycle 1. This preparation provides vesicles with a mole fraction of 0.05 for the FRET substrate.The enzymatic assay was measured using white, opaque 96-well half area plates. Each well contained 60 uL, of assay buffer (50 mM HEPES pH 8.0, 50 mM NaCl and 1 mM CaCl2) and 2 ul of a DMSO solution containing compound of interest. Conditioned media obtained from HT-1080 cells. It is filed as cell-based.
Regarding `CC(C)(C)OC(=O)NC(c1nnc(CNS(N)(=O)=O)o1)c1nc2ccc(-c3ccccc3)cc2s1` (stereo not drawn), the half-maximal inhibitory concentration (IC50) (in general, the point on the concentration scale where inhibition reaches its midpoint) is below 10 nM. In the case of `O=C(NC(c1nnc(CS(=O)(=O)O)o1)c1nc2ccc(-c3ccccc3)cc2s1)c1ccc(C(F)(F)F)cc1` (stereo not drawn) it was below 10 nM; in that of `CC(=O)NC(c1nnc(C2CN(C(=O)OC(C)(C)C)C2)o1)c1nc2ccc(-c3ccccc3)cc2s1` (stereo not drawn), below 10 nM.
